The subject of series [1] is Plasmodium falciparum. The experiment in a line: Antiplasmodial activity against intraerythrocytic stage of Plasmodium falciparum Dd2 assessed as parasite growth inhibition after 72 hrs by SYBR Green I dye-based assay. Type of series: functional. The conditions noted are these: Dd2, 72 h.
In series [2] the test system is Plasmodium falciparum. Description: Antiplasmodial activity against Plasmodium falciparum FcB1/Columbia infected in human erythrocytes assessed as parasite growth inhibition after 24 hrs by [3H]-hypoxanthine incorporation assay. Type of series: functional, cell-based.
The nature of series [3]: Stability of the compound under freezing condition. Type of series: physicochemical.

By IC50 is commonly meant the midpoint of a concentration-inhibition curve. For the compound `CC(=O)c1c(O)cc(O)c(CC=C(C)C)c1O`, in the series with Plasmodium falciparum [1], the half-maximal inhibitory concentration (IC50) was over 20 µM.
As to `CC(=O)c1c(O)cc(O)c(C/C=C(\C)CCC=C(C)C)c1O`, the IC50 in the series with Plasmodium falciparum [1] worked out at 6.6 µM.
Turning to `COc1cc(O)c(C(C)=O)c(O)c1Cc1c(OC)cc(O)c(C(C)=O)c1O`, the values for the IC50 in the series on Plasmodium falciparum [1] and with Plasmodium falciparum [2] were 8.1 µM and 17.6 µM, respectively.
For `COc1cc(O)c(C(C)=O)c(O)c1CC=C(C)C` the same measures were 1.7 µM and 7.4 µM.
With `CC(=O)c1c(O)c(CC=C(C)C)c(O)c(C(c2ccc(F)cc2)c2c(O)cc(O)c(CC=C(C)C)c2O)c1O` (centres undefined), the IC50 in the series on Plasmodium falciparum [1] lay in the range of 2 to 4 µM. The Stability result in series [3] is reported as “Unstable”.
Take `COc1cc(O)c(C(C)=O)c(O)c1C/C=C(/C)CC/C=C(/C)CCC=C(C)C`: the half-inhibitory concentration (IC50) with Plasmodium falciparum [1] worked out at 0.56 µM.
`COc1c(C/C=C(\C)CCC=C(C)C)c(O)c(C(C)=O)c(O)c1Cc1c(O)c(C(C)=O)c(O)c(C/C=C(\C)CCC=C(C)C)c1OC`: the concentration for half-maximal inhibition (IC50) with Plasmodium falciparum [1] is 1.7 µM; with Plasmodium falciparum [2] it was 6 µM.
With `COc1cc(O)c(C(C)=O)c(O)c1CCC(C)(C)O`, the IC50 in the series on Plasmodium falciparum [1] was over 20 µM.
`CC(=O)c1c(O)cc(O)c(C/C=C(/C)CC/C=C(/C)CCC=C(C)C)c1O`: the IC50 in the series with Plasmodium falciparum [1] worked out at 3.6 µM.
The same measure, in the same setting: under `COc1c(CCC(C)(C)O)c(O)c(C(C)=O)c(O)c1Cc1c(O)c(C(C)=O)c(O)c(CCC(C)(C)O)c1OC` stands over 10 µM.
With `COc1cc(O)c(C(C)=O)c(O)c1C/C=C(\C)CCC=C(C)C`, the 50% inhibitory concentration (IC50) amounted to 0.57 µM with Plasmodium falciparum [1] and 4.4 µM in the series on Plasmodium falciparum [2].
For `COc1cc(O)c(C(C)=O)c(O)c1`, the half-inhibitory concentration (IC50) with Plasmodium falciparum [1] was over 20 µM.
`CC(=O)c1c(O)cc(O)cc1O` [2,4,6-TRIHYDROXYACETOPHENONE]: the IC50 in the series on Plasmodium falciparum [1] is over 20 µM.
Take `COc1c(CC=C(C)C)c(O)c(C(C)=O)c(O)c1Cc1c(O)c(C(C)=O)c(O)c(CC=C(C)C)c1OC` [MALLOTOJAPONIN C]: the half-inhibitory concentration (IC50) in the series with Plasmodium falciparum [2] worked out at 0.75 µM.

The values above are taken from ChEMBL document CHEMBL4000152, “Synthesis and Antimalarial Activity of Mallatojaponin C and Related Compounds” (J Nat Prod, 2016).
